According to ChEMBL document CHEMBL1201862, “PubChem BioAssay data set” (2004):
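A five-concentration, 48-hour dose response in 96-well plates underlies each endpoint, interpolated linearly between surrounding concentrations. Abbreviation: GI50, concentration required for 50% inhibition of growth.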 Active and inactive are the calls of the source. Rule as the data show it: active = GI50 up to about 1.1 µM and inactive = higher.

Tests used:
Assay in all cases: NCI-60 cell line screen, 48 h
SK-MEL-2 = tested on: SK-MEL-2
U-251 = tested on: U-251
SF-295 = tested on: SF-295
SF-268 = tested on: SF-268
SNB-19 = tested on: SNB-19
T47D = tested on: T47D
RPMI-8226 = tested on: RPMI-8226
COLO 205 = tested on: COLO 205
MDA-MB-231 = tested on: MDA-MB-231
MDA-N = tested on: MDA-N
A549 = tested on: A549
MCF7 = tested on: MCF7
786-0 = tested on: 786-0
OVCAR-5 = tested on: OVCAR-5
LOX IMVI = tested on: LOX IMVI
Malme-3M = tested on: Malme-3M
SK-MEL-5 = tested on: SK-MEL-5
BT-549 = tested on: BT-549
TK-10 = tested on: TK-10
KM12 = tested on: KM12
CAKI-1 = tested on: CAKI-1
PC-3 = tested on: PC-3
SW-620 = tested on: SW-620
EKVX = tested on: EKVX
NCI-H460 = tested on: NCI-H460
RXF 393 = tested on: RXF 393
HL-60 = tested on: HL-60
M14 = tested on: M14
MDA-MB-435 = tested on: MDA-MB-435
OVCAR-3 = tested on: OVCAR-3
UACC-62 = tested on: UACC-62
OVCAR-8 = tested on: OVCAR-8
UACC-257 = tested on: UACC-257
Hs-578T = tested on: Hs-578T
SNB-75 = tested on: SNB-75
DU-145 = tested on: DU-145
UO-31 = tested on: UO-31
SR = tested on: SR
SF-539 = tested on: SF-539
HOP-92 = tested on: HOP-92
IGROV-1 = tested on: IGROV-1
HCT-116 = tested on: HCT-116
K562 = tested on: K562
HCT-15 = tested on: HCT-15
CCRF-CEM = tested on: CCRF-CEM
MOLT-4 = tested on: MOLT-4
ACHN = tested on: ACHN
NCI/ADR-RES = tested on: NCI/ADR-RES
SK-MEL-28 = tested on: SK-MEL-28
NCI-H522 = tested on: NCI-H522
NCI-H226 = tested on: NCI-H226
OVCAR-4 = tested on: OVCAR-4
A498 = tested on: A498
SN12C = tested on: SN12C
HCC 2998 = tested on: HCC 2998
NCI-H23 = tested on: NCI-H23
HOP-62 = tested on: HOP-62
SK-OV-3 = tested on: SK-OV-3
HT-29 = tested on: HT-29

`CC(NNC(=O)c1cc[n+]([BH2-]C#N)cc1)c1ccc(Cl)cc1Cl` (stereo not drawn) was tested, and the GI50 (SK-MEL-2) was 49.5 µM (inactive), the GI50 (U-251) was 48.2 µM (inactive) and the GI50 (SF-295) was 32.5 µM (inactive). For the same compound, the GI50 (SF-268) was 41.2 µM (inactive), the GI50 (SNB-19) was 41.4 µM (inactive) and the GI50 (T47D) was 34.5 µM (inactive). The GI50 (RPMI-8226) was 17.6 µM (inactive), the GI50 (COLO 205) was 60.7 µM (inactive) and the GI50 (MDA-MB-231) was 35 µM (inactive). For the same compound, the GI50 (MDA-N) was > 100 µM (inactive), the GI50 (A549) was 37.2 µM (inactive) and the GI50 (MCF7) was 36 µM (inactive). The GI50 (786-0) was 49.1 µM (inactive), the GI50 (OVCAR-5) was 42.2 µM (inactive) and the GI50 (LOX IMVI) was 29.2 µM (inactive). For the same compound, the GI50 (Malme-3M) was 43.9 µM (inactive), the GI50 (SK-MEL-5) was 23 µM (inactive) and the GI50 (BT-549) was 46.2 µM (inactive). The GI50 (TK-10) was 48.6 µM (inactive), the GI50 (KM12) was 34.8 µM (inactive) and the GI50 (CAKI-1) was 68.2 µM (inactive). For the same compound, the GI50 (PC-3) was 33.6 µM (inactive), the GI50 (SW-620) was 42.8 µM (inactive) and the GI50 (EKVX) was 24.5 µM (inactive). The GI50 (NCI-H460) was 44.1 µM (inactive), the GI50 (RXF 393) was 43.3 µM (inactive) and the GI50 (HL-60) was 23.8 µM (inactive). For the same compound, the GI50 (M14) was 42.4 µM (inactive), the GI50 (MDA-MB-435) was 42.1 µM (inactive) and the GI50 (OVCAR-3) was 25 µM (inactive). For the same compound, the GI50 (UACC-62) was 55.8 µM (inactive), the GI50 (OVCAR-8) was 31.5 µM (inactive) and the GI50 (UACC-257) was 42.1 µM (inactive). For the same compound, the GI50 (Hs-578T) was 39.5 µM (inactive), the GI50 (SNB-75) was 31.8 µM (inactive) and the GI50 (DU-145) was 68.5 µM (inactive). For the same compound, the GI50 (UO-31) was 26.2 µM (inactive), the GI50 (SR) was 30.9 µM (inactive) and the GI50 (SF-539) was 53.7 µM (inactive). For the same compound, the GI50 (HOP-92) was 37.4 µM (inactive), the GI50 (IGROV-1) was 51.8 µM (inactive) and the GI50 (HCT-116) was 22.5 µM (inactive). For the same compound, the GI50 (K562) was 24.2 µM (inactive), the GI50 (HCT-15) was 44.8 µM and the GI50 (CCRF-CEM) was 33.3 µM (inactive). The GI50 (MOLT-4) was 17.5 µM (inactive), the GI50 (ACHN) was 42.7 µM (inactive) and the GI50 (NCI/ADR-RES) was 31.6 µM (inactive). For the same compound, the GI50 (SK-MEL-28) was 44.5 µM (inactive), the GI50 (NCI-H522) was 28.6 µM (inactive) and the GI50 (NCI-H226) was 14.2 µM (inactive). The GI50 (OVCAR-4) was 30.7 µM (inactive), the GI50 (A498) was > 100 µM (inactive) and the GI50 (SN12C) was > 100 µM (inactive). The GI50 (HCC 2998) was 57.1 µM (inactive).
With `CC(=O)OCCOCn1cnc2c(Cl)nc(Cl)nc21` the GI50 (SK-MEL-2) was 22.3 µM (inactive), the GI50 (U-251) was 15 µM (inactive) and the GI50 (SF-295) was > 10 µM (inactive). For the same compound, the GI50 (SF-268) was 17.9 µM (inactive), the GI50 (SNB-19) was 31.2 µM (inactive) and the GI50 (T47D) was 10 µM (inactive). The GI50 (RPMI-8226) was 5.97 µM (inactive), the GI50 (COLO 205) was 18.6 µM (inactive) and the GI50 (MDA-MB-231) was 15.3 µM (inactive). For the same compound, the GI50 (MDA-N) was 17.4 µM (inactive), the GI50 (A549) was > 10 µM (inactive) and the GI50 (NCI-H23) was 18.7 µM (inactive). The GI50 (MCF7) was > 10 µM (inactive), the GI50 (786-0) was 21.4 µM (inactive) and the GI50 (OVCAR-5) was 19.1 µM (inactive). The GI50 (LOX IMVI) was 4.3 µM (inactive), the GI50 (Malme-3M) was 15.8 µM (inactive) and the GI50 (SK-MEL-5) was 18.1 µM (inactive). The GI50 (BT-549) was 18.7 µM (inactive), the GI50 (TK-10) was 39.4 µM (inactive) and the GI50 (KM12) was 18.2 µM (inactive). For the same compound, the GI50 (CAKI-1) was 0.275 µM (active), the GI50 (PC-3) was 17 µM (inactive) and the GI50 (SW-620) was 12.4 µM (inactive). The GI50 (EKVX) was 2.84 µM (inactive), the GI50 (NCI-H460) was 18.5 µM (inactive) and the GI50 (RXF 393) was > 10 µM (inactive). For the same compound, the GI50 (HOP-62) was 17.7 µM (inactive), the GI50 (HL-60) was 2.65 µM (inactive) and the GI50 (M14) was 17.1 µM (inactive). The GI50 (MDA-MB-435) was 17.3 µM (inactive), the GI50 (OVCAR-3) was 14 µM (inactive) and the GI50 (UACC-62) was 16.1 µM (inactive). The GI50 (OVCAR-8) was 20.8 µM (inactive), the GI50 (UACC-257) was 17.1 µM (inactive) and the GI50 (Hs-578T) was 18.7 µM (inactive). The GI50 (SNB-75) was 21.5 µM (inactive), the GI50 (DU-145) was 19.5 µM (inactive) and the GI50 (UO-31) was 21.2 µM (inactive). For the same compound, the GI50 (SR) was 3.87 µM (inactive), the GI50 (SF-539) was > 10 µM (inactive) and the GI50 (HOP-92) was 1.67 µM (inactive). For the same compound, the GI50 (IGROV-1) was 14.3 µM (inactive), the GI50 (HCT-116) was 18.2 µM (inactive) and the GI50 (K562) was 2.44 µM (inactive). The GI50 (HCT-15) was 3.64 µM, the GI50 (SK-OV-3) was > 10 µM (inactive) and the GI50 (CCRF-CEM) was 6.37 µM (inactive). The GI50 (HT-29) was 15.4 µM (inactive), the GI50 (MOLT-4) was 19.2 µM (inactive) and the GI50 (ACHN) was 16.5 µM (inactive). For the same compound, the GI50 (NCI/ADR-RES) was 24.1 µM (inactive), the GI50 (NCI-H522) was 2.05 µM (inactive) and the GI50 (NCI-H226) was 19.2 µM (inactive). For the same compound, the GI50 (OVCAR-4) was 19.1 µM (inactive), the GI50 (A498) was 32.2 µM (inactive) and the GI50 (SN12C) was 18.5 µM (inactive). The GI50 (HCC 2998) was 12.2 µM (inactive).
